Reference: ChEMBL document CHEMBL5678795 (Eur J Pharmacol, 1999)
The source made the active and inactive calls. The calls are words filed in the database; no cut-off is given here.

Key:
[1] = target: Beta-1 adrenergic receptor (Homo sapiens) (UniProt P08588); experiment: Displacement of [3H](-)CGP 12177 from human recombinant beta1-adrenoceptor at 10 uM incubated for 60 mins by radiometric based scintillation counter assay relative to control
[2] = target: B2 bradykinin receptor (Homo sapiens) (UniProt P30411); experiment: Displacement of [3H]bradykinin from human recombinant Bradykinin B2 receptor at 10 uM incubated for 60 mins by radiometric based scintillation counter assay relative to control
Endothelin-1 receptor [3] = target: T1, Endothelin-1 receptor (Rattus norvegicus, UniProt P26684); experiment: Antagonist activity at ETA receptor in endothelin-1 stimulated rat MMQ cells assessed as inhibition of phosphatidylinositol hydrolysis in presence of myo-[3H] inositol by anion exchange chromatography; type: functional, cell-based
T1 sequence (P26684 whole entry): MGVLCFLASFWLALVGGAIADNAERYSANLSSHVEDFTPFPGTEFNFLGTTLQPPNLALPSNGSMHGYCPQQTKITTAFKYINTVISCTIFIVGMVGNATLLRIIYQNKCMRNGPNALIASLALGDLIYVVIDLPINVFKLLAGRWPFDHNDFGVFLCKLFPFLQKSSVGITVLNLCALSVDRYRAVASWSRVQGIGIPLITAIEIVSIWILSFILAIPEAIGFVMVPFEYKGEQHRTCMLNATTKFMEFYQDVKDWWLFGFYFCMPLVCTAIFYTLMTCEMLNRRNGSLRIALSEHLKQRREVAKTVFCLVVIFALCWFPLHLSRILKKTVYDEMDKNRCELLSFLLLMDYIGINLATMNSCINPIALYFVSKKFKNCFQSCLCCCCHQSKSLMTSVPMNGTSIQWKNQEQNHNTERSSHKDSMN

[4] = target: Type-2 angiotensin II receptor (Homo sapiens) (UniProt P50052); experiment: Displacement of [125I]CGP 42112A from human recombinant angiotensin AT2 receptor at 10 uM incubated for 240 mins by radiometric based scintillation counter assay relative to control
Endothelin-1 receptor [5] = target: T1, Endothelin-1 receptor; experiment: Antagonist activity to ETA receptor in Sprague-Dawley rat aorta assessed as induction of vessel ring contraction preincubated for 15 mins; type: functional, tissue-based; settings: read-out: pA2 (converted)
Rattus norvegicus = species on record: Rattus norvegicus; experiment: Displacement of [3H]RX 821002 from rat brain […] at 10 uM incubated for 60 mins by radiometric based scintillation counter assay relative to control; type: tissue-based
[6] = target: Sodium-dependent dopamine transporter (Homo sapiens) (UniProt Q01959); experiment: Displacement of [3H]BTCP from human recombinant dopamine receptor at 10 uM incubated for 120 mins by radiometric based scintillation counter assay relative to control
[7] = target: T2, Endothelin receptor type B (Homo sapiens, UniProt P24530); experiment: Displacement of [125I]endhothelin-3 from human ETB receptor stably expressed in CHO cells Membrane assessed as inhibition constant at 25 degC incubated for 4 hrs by saturation binding assay; type: cell membranes
T2 sequence (P24530 whole entry): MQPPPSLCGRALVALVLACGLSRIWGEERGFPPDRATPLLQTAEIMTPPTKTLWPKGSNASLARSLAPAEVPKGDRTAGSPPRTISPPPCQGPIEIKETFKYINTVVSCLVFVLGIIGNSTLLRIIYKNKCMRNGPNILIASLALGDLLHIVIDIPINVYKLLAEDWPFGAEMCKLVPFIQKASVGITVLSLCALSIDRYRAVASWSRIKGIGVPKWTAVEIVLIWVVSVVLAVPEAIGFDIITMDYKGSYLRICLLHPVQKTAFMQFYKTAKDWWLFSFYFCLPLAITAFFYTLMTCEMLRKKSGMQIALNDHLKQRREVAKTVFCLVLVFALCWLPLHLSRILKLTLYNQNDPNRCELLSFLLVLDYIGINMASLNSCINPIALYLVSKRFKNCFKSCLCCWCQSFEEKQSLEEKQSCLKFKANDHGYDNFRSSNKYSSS

[8] = Cmax in Beagle dog at 5 mg/kg, po administered for 12 hrs by HPLC analysis; type: ADME, organism-based, Canis lupus familiaris; settings: in vivo
[9] = target: Adenosine receptor A2a (Homo sapiens) (UniProt P29274); experiment: Displacement of [3H]CGS 21680 from human recombinant Adenosine A2A receptor at 10 uM incubated for 120 mins by radiometric based scintillation counter assay relative to control
[10] = target: Bombesin receptor (Rattus norvegicus) (UniProt P52500+P24053+Q8K418); experiment: Displacement of [125I][Tyr4]bombesin from rat brain Bombesin receptor at 10 uM incubated for 60 mins by radiometric based scintillation counter assay relative to control; type: tissue-based
[11] = system: Glutamate receptor ionotropic NMDA (PCP site); experiment: Inhibition of PCP receptor (unknown origin) at 10 uM by radioligand binding assay relative to control; settings: Homo sapiens
[12] = target: Vasopressin V2 receptor (Homo sapiens) (UniProt P30518); experiment: Displacement of [3H]AVP from human recombinant Vasopressin V2 receptor at 10 uM incubated for 120 mins by radiometric based scintillation counter assay relative to control
[13] = target: Adenosine receptor A1 (Homo sapiens) (UniProt P30542); experiment: Displacement of [3H]DPCPX from human recombinant Adenosine A1 receptor at 10 uM incubated for 60 mins by radiometric based scintillation counter assay relative to control
[14] = Oral bioavailability in cynomolgus monkey at 5 mg/kg administered for 12 hrs by HPLC analysis; type: ADME, organism-based, Macaca fascicularis; settings: in vivo
Homo sapiens [15] = species on record: Homo sapiens; experiment: Displacement of [3H]Dofetilide from human recombinant voltage-dependent K+ channel at 10 uM incubated for 60 mins by radiometric based scintillation counter assay relative to control
[16] = target: Beta-2 adrenergic receptor (Homo sapiens) (UniProt P07550); experiment: Displacement of [3H](-)CGP 12177 from human recombinant beta2-adrenoceptor at 10 uM incubated for 120 mins by radiometric based scintillation counter assay relative to control
[17] = target: T3, Endothelin-1 receptor (Rattus norvegicus) (UniProt P26684); experiment: In vivo antagonist activity to ETA receptor in endothelin-1 induced Sprague-Dawley rat assessed as inhibition of transient depressor response at 10 to 30 mg/kg, po administered for 4 hrs; type: functional, organism-based; settings: dose 10-30 mg/kg
T3 sequence (whole entry): T1 sequence (P26684 whole entry)

[18] = target: Tumor necrosis factor receptor superfamily member 1A (Homo sapiens) (UniProt P19438); experiment: Displacement of [125I]TNF-alpha from human tumor necrosis factor-alpha at 10 uM incubated for 120 mins by radiometric based scintillation counter assay relative to control
[19] = target: T3, Endothelin-1 receptor (Rattus norvegicus); experiment: Antagonist activity to ETA receptor in endothelin-1 stimulated Sprague-Dawley rat aorta assessed as induction of vessel ring contraction upto 10 uM preincubated for 15 mins; type: functional, tissue-based
Endothelin-1 receptor [20] = target: T1, Endothelin-1 receptor; experiment: Displacement of [125I]endhothelin-1 from ETA receptor in rat MMQ cells Membrane at 25 degC incubated for 3 hrs by radioligand competition binding assay; type: cell membranes
[21] = target: Muscarinic acetylcholine receptor M4 (Homo sapiens) (UniProt P08173); experiment: Displacement of [3H]4-DAMP from human recombinant muscarinic M4 receptor at 10 uM incubated for 60 mins by radiometric based scintillation counter assay relative to control
Homo sapiens [22] = species on record: Homo sapiens; experiment: Inhibition of Ca2+ dependent potassium channel (unknown origin) at 10 uM by radioligand binding assay relative to control
[23] = target: 5-hydroxytryptamine receptor 2A (Homo sapiens) (UniProt P28223); experiment: Displacement of [3H]ketanserin from human recombinant 5-Hydroxytryptamine 2A at 10 uM incubated for 60 mins by radiometric based scintillation counter assay relative to control
5-hydroxytryptamine receptor 2A (Homo sapiens), sequence (P28223 whole entry): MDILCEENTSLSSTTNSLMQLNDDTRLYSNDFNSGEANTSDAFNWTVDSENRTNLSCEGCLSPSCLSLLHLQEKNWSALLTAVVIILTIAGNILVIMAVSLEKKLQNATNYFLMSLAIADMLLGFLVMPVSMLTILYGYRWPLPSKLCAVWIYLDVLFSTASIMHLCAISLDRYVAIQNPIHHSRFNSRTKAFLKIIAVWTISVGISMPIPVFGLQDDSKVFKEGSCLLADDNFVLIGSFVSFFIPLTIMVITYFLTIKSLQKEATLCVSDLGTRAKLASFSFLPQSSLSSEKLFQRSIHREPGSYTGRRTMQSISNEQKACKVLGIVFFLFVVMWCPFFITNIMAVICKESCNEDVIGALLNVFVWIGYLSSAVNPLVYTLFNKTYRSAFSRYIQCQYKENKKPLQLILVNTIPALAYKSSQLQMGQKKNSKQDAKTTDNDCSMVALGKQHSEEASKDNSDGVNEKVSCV

Beta-2 adrenergic receptor (Homo sapiens), sequence (P07550 whole entry, looked up): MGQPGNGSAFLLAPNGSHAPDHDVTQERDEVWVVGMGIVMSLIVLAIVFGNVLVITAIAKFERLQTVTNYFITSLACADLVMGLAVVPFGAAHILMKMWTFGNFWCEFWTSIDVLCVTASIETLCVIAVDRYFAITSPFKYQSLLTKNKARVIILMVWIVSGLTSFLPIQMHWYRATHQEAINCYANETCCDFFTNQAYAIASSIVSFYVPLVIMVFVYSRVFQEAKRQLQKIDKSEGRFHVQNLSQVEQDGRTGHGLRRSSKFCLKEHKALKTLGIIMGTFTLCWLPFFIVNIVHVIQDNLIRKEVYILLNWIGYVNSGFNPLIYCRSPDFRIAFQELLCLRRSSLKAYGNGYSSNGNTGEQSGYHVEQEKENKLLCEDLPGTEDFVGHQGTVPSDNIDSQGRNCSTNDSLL
Adenosine receptor A2a (Homo sapiens), sequence (P29274 whole entry): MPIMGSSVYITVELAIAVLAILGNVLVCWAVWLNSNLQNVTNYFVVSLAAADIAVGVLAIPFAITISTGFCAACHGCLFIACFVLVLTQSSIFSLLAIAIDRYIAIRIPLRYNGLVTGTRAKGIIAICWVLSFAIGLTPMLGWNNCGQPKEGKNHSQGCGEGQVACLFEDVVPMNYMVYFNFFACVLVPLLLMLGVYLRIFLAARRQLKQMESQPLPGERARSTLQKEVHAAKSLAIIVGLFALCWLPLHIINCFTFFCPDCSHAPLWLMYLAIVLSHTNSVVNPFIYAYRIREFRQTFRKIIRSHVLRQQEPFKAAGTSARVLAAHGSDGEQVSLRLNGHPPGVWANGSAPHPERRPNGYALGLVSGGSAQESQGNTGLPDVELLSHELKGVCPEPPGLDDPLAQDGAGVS
Muscarinic acetylcholine receptor M4 (Homo sapiens), sequence (P08173 whole entry): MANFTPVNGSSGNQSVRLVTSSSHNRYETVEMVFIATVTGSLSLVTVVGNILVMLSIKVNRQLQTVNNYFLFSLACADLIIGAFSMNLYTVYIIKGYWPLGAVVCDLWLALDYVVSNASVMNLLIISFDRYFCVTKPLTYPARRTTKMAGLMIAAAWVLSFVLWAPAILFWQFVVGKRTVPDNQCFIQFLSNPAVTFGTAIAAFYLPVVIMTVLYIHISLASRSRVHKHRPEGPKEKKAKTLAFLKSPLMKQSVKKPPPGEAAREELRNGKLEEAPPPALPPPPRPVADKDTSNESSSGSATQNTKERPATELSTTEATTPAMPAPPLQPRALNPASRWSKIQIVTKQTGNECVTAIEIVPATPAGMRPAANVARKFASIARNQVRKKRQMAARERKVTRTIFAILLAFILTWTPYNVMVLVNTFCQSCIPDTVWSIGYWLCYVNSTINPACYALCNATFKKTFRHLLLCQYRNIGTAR
Tumor necrosis factor receptor superfamily member 1A (Homo sapiens), sequence (P19438 whole entry): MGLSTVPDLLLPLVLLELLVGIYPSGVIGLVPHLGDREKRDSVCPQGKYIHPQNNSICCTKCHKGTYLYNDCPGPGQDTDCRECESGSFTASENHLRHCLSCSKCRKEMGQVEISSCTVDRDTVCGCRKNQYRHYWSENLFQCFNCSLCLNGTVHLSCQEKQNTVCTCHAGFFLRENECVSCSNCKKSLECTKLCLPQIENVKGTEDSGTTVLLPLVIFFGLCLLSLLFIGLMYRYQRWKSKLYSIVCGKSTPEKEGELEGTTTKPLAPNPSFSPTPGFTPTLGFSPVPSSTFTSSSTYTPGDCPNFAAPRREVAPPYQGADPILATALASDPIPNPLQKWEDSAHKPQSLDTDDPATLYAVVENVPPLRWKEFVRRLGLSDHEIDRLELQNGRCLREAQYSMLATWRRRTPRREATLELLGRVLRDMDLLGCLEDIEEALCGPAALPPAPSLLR
B2 bradykinin receptor (Homo sapiens), sequence (P30411 whole entry): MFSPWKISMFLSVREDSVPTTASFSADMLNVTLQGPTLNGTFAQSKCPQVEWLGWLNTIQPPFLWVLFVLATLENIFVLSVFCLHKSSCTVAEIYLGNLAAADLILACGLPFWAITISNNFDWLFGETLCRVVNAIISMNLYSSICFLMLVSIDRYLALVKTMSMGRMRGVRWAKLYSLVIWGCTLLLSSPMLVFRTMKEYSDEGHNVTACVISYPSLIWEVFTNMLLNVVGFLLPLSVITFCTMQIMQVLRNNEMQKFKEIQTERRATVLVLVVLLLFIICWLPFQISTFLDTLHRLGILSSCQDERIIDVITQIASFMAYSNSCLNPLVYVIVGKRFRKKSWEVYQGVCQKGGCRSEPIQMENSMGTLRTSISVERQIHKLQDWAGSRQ
Beta-1 adrenergic receptor (Homo sapiens), sequence (P08588 whole entry, looked up): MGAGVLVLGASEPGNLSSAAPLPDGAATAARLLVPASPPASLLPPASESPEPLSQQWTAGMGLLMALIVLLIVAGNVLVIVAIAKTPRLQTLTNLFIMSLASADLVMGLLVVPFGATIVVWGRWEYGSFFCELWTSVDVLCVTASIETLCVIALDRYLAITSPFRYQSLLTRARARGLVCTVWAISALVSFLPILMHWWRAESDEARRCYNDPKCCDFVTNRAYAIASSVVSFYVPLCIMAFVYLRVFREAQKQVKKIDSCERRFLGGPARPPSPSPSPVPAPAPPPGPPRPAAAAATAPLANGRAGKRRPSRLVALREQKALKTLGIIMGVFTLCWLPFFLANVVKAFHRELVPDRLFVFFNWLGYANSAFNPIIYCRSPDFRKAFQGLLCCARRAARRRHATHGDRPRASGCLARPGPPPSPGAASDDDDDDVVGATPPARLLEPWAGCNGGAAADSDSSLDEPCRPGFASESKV
Vasopressin V2 receptor (Homo sapiens), sequence (P30518 whole entry): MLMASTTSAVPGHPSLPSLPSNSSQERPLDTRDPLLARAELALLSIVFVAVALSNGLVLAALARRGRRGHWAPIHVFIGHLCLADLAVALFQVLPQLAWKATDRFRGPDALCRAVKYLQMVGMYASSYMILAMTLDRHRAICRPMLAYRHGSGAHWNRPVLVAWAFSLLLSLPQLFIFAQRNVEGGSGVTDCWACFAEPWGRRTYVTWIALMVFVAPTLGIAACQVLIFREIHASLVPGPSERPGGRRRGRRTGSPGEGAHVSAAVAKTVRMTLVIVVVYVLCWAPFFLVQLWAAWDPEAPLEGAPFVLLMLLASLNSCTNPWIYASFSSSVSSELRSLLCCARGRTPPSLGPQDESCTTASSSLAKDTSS
Type-2 angiotensin II receptor (Homo sapiens), sequence (P50052 whole entry): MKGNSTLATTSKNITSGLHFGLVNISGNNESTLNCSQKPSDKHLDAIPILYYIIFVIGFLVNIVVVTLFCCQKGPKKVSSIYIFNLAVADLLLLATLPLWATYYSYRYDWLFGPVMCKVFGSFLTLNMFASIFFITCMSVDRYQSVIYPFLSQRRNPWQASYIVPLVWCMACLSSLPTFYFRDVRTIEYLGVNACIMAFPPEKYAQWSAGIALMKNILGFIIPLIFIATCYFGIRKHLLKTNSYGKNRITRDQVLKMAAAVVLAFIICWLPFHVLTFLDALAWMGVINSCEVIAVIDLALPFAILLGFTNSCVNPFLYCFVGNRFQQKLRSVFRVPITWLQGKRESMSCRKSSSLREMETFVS
Adenosine receptor A1 (Homo sapiens), sequence (P30542 whole entry): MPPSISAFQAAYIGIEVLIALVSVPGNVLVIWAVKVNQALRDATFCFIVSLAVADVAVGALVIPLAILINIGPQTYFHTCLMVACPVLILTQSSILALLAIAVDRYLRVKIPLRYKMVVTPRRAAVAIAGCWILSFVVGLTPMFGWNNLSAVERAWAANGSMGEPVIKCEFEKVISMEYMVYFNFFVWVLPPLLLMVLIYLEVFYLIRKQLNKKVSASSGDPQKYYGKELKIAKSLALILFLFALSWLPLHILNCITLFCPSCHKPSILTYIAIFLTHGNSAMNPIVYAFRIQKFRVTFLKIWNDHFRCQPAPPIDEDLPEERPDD
Sodium-dependent dopamine transporter (Homo sapiens), sequence (Q01959 whole entry): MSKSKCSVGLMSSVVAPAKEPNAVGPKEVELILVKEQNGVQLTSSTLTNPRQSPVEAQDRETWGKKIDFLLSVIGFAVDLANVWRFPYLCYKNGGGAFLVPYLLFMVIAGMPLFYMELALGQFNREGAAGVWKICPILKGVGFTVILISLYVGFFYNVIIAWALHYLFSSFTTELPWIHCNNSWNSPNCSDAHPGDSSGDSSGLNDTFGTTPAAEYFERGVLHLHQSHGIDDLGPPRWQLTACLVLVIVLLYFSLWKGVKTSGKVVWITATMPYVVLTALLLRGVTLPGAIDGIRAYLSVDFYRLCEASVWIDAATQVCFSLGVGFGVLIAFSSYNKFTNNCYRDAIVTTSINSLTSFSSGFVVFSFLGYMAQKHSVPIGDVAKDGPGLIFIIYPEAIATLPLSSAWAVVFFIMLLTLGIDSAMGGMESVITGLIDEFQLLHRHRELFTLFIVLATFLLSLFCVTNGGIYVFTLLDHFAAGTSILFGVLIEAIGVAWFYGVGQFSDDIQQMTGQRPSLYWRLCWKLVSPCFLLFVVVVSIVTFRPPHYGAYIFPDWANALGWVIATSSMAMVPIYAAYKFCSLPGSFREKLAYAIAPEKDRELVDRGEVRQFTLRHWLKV

CCCCN(CCCC)C(=O)CN1[C@H](c2cc(OC)c3c(c2)OCO3)C[C@@H](C(=O)O)[C@@H]1CC(C)(C)CCC
inhibition [1]: < 10% | inhibition [2]: < 10% | IC50 (Endothelin-1 receptor [3]): 0.59 nM | inhibition [4]: < 10% | Kb (Endothelin-1 receptor [5]): 5.13 nM | inhibition (Rattus norvegicus): 18% | inhibition [6]: < 10% | Ki [7]: 13 µM | Cmax [8]: 1970 ng/mL | inhibition [9]: < 10% | inhibition [10]: < 10% | inhibition [11]: < 10% | inhibition [12]: < 10% | inhibition [13]: 23% | bioavailability [14]: 18.1% | inhibition (Homo sapiens [15]): < 10% | inhibition [16]: < 10% | Activity [17]: inactive | inhibition [18]: < 10% | Activity [19]: inactive | IC50 (Endothelin-1 receptor [20]): 0.56 nM | inhibition [21]: < 10% | inhibition (Homo sapiens [22]): < 10% | inhibition [23]: < 10%
